Laboratory results from PubChem BioAssay (NCI).
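96-well plates; 48 h exposure; 5 concentrations. Endpoints by linear interpolation between flanking doses. Not reached: highest tested concentration assigned. The concentration for 50% growth inhibition is given as GI50. TGI: total growth inhibition.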

What was measured:
Test in all cases: DTP human tumour cell line panel, 48 h; in the data active = GI50 below about 0.43 µM; inactive = the rest
786-0 renal = tested on: 786-0 renal
A498 renal = tested on: A498 renal
A549 NSCLC = tested on: A549 NSCLC
ACHN renal = tested on: ACHN renal
BT-549 breast = tested on: BT-549 breast
CAKI-1 renal = tested on: CAKI-1 renal
CCRF-CEM leukemia = tested on: CCRF-CEM leukemia
COLO 205 colon = tested on: COLO 205 colon
DU-145 prostate = tested on: DU-145 prostate
EKVX NSCLC = tested on: EKVX NSCLC
HCC-2998 colon = tested on: HCC-2998 colon
HCT-116 colon = tested on: HCT-116 colon
HCT-15 colon = tested on: HCT-15 colon
HL-60(TB) leukemia = tested on: HL-60(TB) leukemia
HOP-62 NSCLC = tested on: HOP-62 NSCLC
HOP-92 NSCLC = tested on: HOP-92 NSCLC
HS 578T breast = tested on: HS 578T breast
HT29 colon = tested on: HT29 colon
IGROV1 ovarian = tested on: IGROV1 ovarian
K-562 leukemia = tested on: K-562 leukemia
KM12 colon = tested on: KM12 colon
LOX IMVI melanoma = tested on: LOX IMVI melanoma
M14 melanoma = tested on: M14 melanoma
MALME-3M melanoma = tested on: MALME-3M melanoma
MCF7 breast = tested on: MCF7 breast
MDA-MB-231 breast = tested on: MDA-MB-231 breast
MDA-MB-435 = tested on: MDA-MB-435
MDA-MB-468 breast = tested on: MDA-MB-468 breast
MOLT-4 leukemia = tested on: MOLT-4 leukemia
NCI-H226 lung = tested on: NCI-H226 lung
NCI-H23 lung = tested on: NCI-H23 lung
NCI-H460 lung = tested on: NCI-H460 lung
NCI-H522 lung = tested on: NCI-H522 lung
OVCAR-3 ovarian = tested on: OVCAR-3 ovarian
OVCAR-4 ovarian = tested on: OVCAR-4 ovarian
OVCAR-5 ovarian = tested on: OVCAR-5 ovarian
OVCAR-8 ovarian = tested on: OVCAR-8 ovarian
PC-3 prostate = tested on: PC-3 prostate
RPMI-8226 leukemia = tested on: RPMI-8226 leukemia
RXF 393 renal = tested on: RXF 393 renal
SF-268 CNS = tested on: SF-268 CNS
SF-295 CNS = tested on: SF-295 CNS
SF-539 CNS = tested on: SF-539 CNS
SK-MEL-2 melanoma = tested on: SK-MEL-2 melanoma
SK-MEL-28 melanoma = tested on: SK-MEL-28 melanoma
SK-MEL-5 melanoma = tested on: SK-MEL-5 melanoma
SK-OV-3 ovarian = tested on: SK-OV-3 ovarian
SN12C renal = tested on: SN12C renal
SNB-19 CNS = tested on: SNB-19 CNS
SNB-75 CNS = tested on: SNB-75 CNS
SR leukemia = tested on: SR leukemia
SW-620 colon = tested on: SW-620 colon
T-47D breast = tested on: T-47D breast
TK-10 renal = tested on: TK-10 renal
U251 CNS = tested on: U251 CNS
UACC-257 melanoma = tested on: UACC-257 melanoma
UACC-62 melanoma = tested on: UACC-62 melanoma
UO-31 renal = tested on: UO-31 renal

N#Cc1c(-c2ccccc2Cl)cc(-c2ccc3ccccc3c2)[nH]c1=O
33.1 µM: TGI (CAKI-1 renal)
46.6 µM: TGI (SK-MEL-5 melanoma)
56.9 µM: TGI (NCI-H460 lung)
71.9 µM: TGI (UACC-257 melanoma)
32.4 µM: TGI (SK-OV-3 ovarian)
34.3 µM: TGI (A498 renal)
30.8 µM: TGI (786-0 renal)
45.5 µM: TGI (MDA-MB-231 breast)
26.8 µM: TGI (HOP-92 NSCLC)
> 100 µM: TGI (A549 NSCLC) | TGI (CCRF-CEM leukemia) | TGI (COLO 205 colon) | TGI (DU-145 prostate) | TGI (EKVX NSCLC) | TGI (HCC-2998 colon) | TGI (HCT-15 colon) | TGI (HL-60(TB) leukemia) | TGI (HT29 colon) | TGI (IGROV1 ovarian) | TGI (K-562 leukemia) | TGI (KM12 colon) | TGI (LOX IMVI melanoma) | TGI (MCF7 breast) | TGI (MDA-MB-435) | TGI (MOLT-4 leukemia) | TGI (NCI-H23 lung) | TGI (NCI-H522 lung) | TGI (OVCAR-5 ovarian) | TGI (PC-3 prostate) | TGI (RPMI-8226 leukemia) | TGI (SF-268 CNS) | TGI (SK-MEL-28 melanoma) | TGI (SN12C renal) | TGI (SR leukemia) | TGI (SW-620 colon) | TGI (T-47D breast) | TGI (UACC-62 melanoma)
29.8 µM: TGI (HOP-62 NSCLC)
38.9 µM: TGI (NCI-H226 lung) | TGI (OVCAR-4 ovarian)
36.3 µM: TGI (OVCAR-8 ovarian)
38.5 µM: TGI (U251 CNS)
41.8 µM: TGI (TK-10 renal)
27.7 µM: TGI (SNB-75 CNS)
46 µM: TGI (SF-539 CNS)
32.5 µM: TGI (SK-MEL-2 melanoma)
54.9 µM: TGI (HS 578T breast) | TGI (M14 melanoma)
85.9 µM: TGI (BT-549 breast)
42.5 µM: TGI (SNB-19 CNS)
94.3 µM: TGI (OVCAR-3 ovarian)
39.9 µM: TGI (ACHN renal)
73.2 µM: TGI (MDA-MB-468 breast)
34.9 µM: TGI (UO-31 renal)
89.8 µM: TGI (HCT-116 colon)
33.8 µM: TGI (SF-295 CNS)
35.7 µM: TGI (MALME-3M melanoma)
inactive: GI50 (786-0 renal) 16.4 µM | GI50 (A498 renal) 15.9 µM | GI50 (A549 NSCLC) 27.3 µM | GI50 (ACHN renal) 18.8 µM | GI50 (BT-549 breast) 25.2 µM | GI50 (CAKI-1 renal) 15.9 µM | GI50 (CCRF-CEM leukemia) > 100 µM | GI50 (COLO 205 colon) 53.5 µM | GI50 (DU-145 prostate) 36.1 µM | GI50 (EKVX NSCLC) 31.4 µM | GI50 (HCC-2998 colon) 53.1 µM | GI50 (HCT-116 colon) 27.2 µM | GI50 (HCT-15 colon) 84.8 µM | GI50 (HL-60(TB) leukemia) > 100 µM | GI50 (HOP-62 NSCLC) 15.3 µM | GI50 (HOP-92 NSCLC) 11.3 µM | GI50 (HS 578T breast) 18.5 µM | GI50 (HT29 colon) > 100 µM | GI50 (IGROV1 ovarian) 34.2 µM | GI50 (K-562 leukemia) > 100 µM | GI50 (KM12 colon) 88.4 µM | GI50 (LOX IMVI melanoma) 44.4 µM | GI50 (M14 melanoma) 20.1 µM | GI50 (MALME-3M melanoma) 16.3 µM | GI50 (MCF7 breast) 38.1 µM | GI50 (MDA-MB-231 breast) 20.3 µM | GI50 (MDA-MB-435) 27.8 µM | GI50 (MDA-MB-468 breast) 23 µM | GI50 (MOLT-4 leukemia) > 100 µM | GI50 (NCI-H226 lung) 16.1 µM | GI50 (NCI-H23 lung) 28.4 µM | GI50 (NCI-H460 lung) 22.2 µM | GI50 (NCI-H522 lung) 68.2 µM | GI50 (OVCAR-3 ovarian) 24.2 µM | GI50 (OVCAR-4 ovarian) 17.2 µM | GI50 (OVCAR-5 ovarian) 75.7 µM | GI50 (OVCAR-8 ovarian) 17.6 µM | GI50 (PC-3 prostate) 41.1 µM | GI50 (RPMI-8226 leukemia) 76 µM | GI50 (RXF 393 renal) 13.5 µM | GI50 (SF-268 CNS) 28.4 µM | GI50 (SF-295 CNS) 17.2 µM | GI50 (SF-539 CNS) 20.9 µM | GI50 (SK-MEL-2 melanoma) 14.9 µM | GI50 (SK-MEL-28 melanoma) 28.1 µM | GI50 (SK-MEL-5 melanoma) 15.6 µM | GI50 (SK-OV-3 ovarian) 15.9 µM | GI50 (SN12C renal) 31.7 µM | GI50 (SNB-19 CNS) 18.5 µM | GI50 (SNB-75 CNS) 10.2 µM | GI50 (SR leukemia) > 100 µM | GI50 (SW-620 colon) 42 µM | GI50 (T-47D breast) 27.3 µM | GI50 (TK-10 renal) 18.3 µM | GI50 (U251 CNS) 17.6 µM | GI50 (UACC-257 melanoma) 22.2 µM | GI50 (UACC-62 melanoma) 27.9 µM | GI50 (UO-31 renal) 16 µM
28.8 µM: TGI (RXF 393 renal)
